The values below are quoted from earlier work in patent US11022607B2, “Compound-carrier systems for assays in nematodes” (Assistance Publique—Hôpitaux de Paris, priority 2013, dated 2021).

For the series, the system named is C. elegans. The conditions noted are these: 25 ml of liposomes containing 50 mg of uranin; in 3 h.

Regarding `O=C([O-])c1ccccc1-c1c2ccc(=O)cc-2oc2cc([O-])ccc12.[Na+].[Na+]` [uranin], the “amount of fluorescent dye absorption, compared with worms administered dye by conventional methods” value is 100 fold.
